# No end group written: not given here.
# How the values were obtained:
# MRSA = assay: Time-kill curve; type: cell-based, methicillin-resistant Staphylococcus aureus; details: ~10^5 CFU mL^−1 in MH broth
# Procedure: Bacteria in the logarithmic growth phase were diluted to approximately 10^5 CFU mL^−1 in MH broth and treated with peptides, polymyxin B, or vancomycin at final concentrations of 1/2 × MIC, 1 × MIC, 2 × MIC, and 4 × MIC. After the addition of the test compound, samples were taken at 0, 3, 6, 9, 12, and 24 h and serially diluted. Subsequently, 5 µL of the diluted samples were spread on agar plates and incubated at 37°C for 20 h. The bacterial concentration CFU mL^−1 at the corresponding time point of each sample was calculated based on the number of colonies on the agar plate, and the log10 (CFU mL^−1) was plotted against time (h).
# CRKP 2403276 = type: cell-based, carbapenem-resistant K. pneumoniae
# Procedure: (§1) The MIC of all peptides was determined using the microdilution broth method in a 96-well plate. Peptides were dissolved in the DMSO with an initial concentration of 12,800 µg mL^−1. And cells of eight strains were separately suspended in the MHB at a density of approximately 10^5 CFU mL^−1. In the first column of the 96-well plate, 16 µL of peptide and 184 µL of MHB were added to each well to achieve a final concentration of 1,024 µg mL^−1. One-hundred microliters of MHB was added to each of the remaining wells. Then the first column of liquid was mixed well and diluted to the 12th column using the twofold dilution method. One-hundred microliters of prepared bacterial solution was added to all wells, and the 96-well plate was incubated at 37°C for 18–24 h. The MIC was defined as the concentration of the peptide in the well just preceding the first well showing visible turbidity. All experiments were performed in triplicate to ensure reliability.
# CRPA 2403282 = type: cell-based, carbapenem-resistant P. aeruginosa
# Procedure: as §1
# CRAB [1] = assay: Biofilm formation inhibition assay (crystal violet); type: cell-based, carbapenem-resistant Acinetobacter baumannii; details: 1/2 × MIC, 24 h, OD570
# Procedure: The crystal violet staining method ([66]) was used to determine the inhibitory activity of the compounds against the biofilm formation of CRAB. The steps were as follows: prepare a bacterial solution (10^6 CFU mL^−1), mix it with different final concentrations of the compound (1/2 × MIC, 1 × MIC, 2 × MIC, and 4 × MIC), and culture it for 24 h. After discarding the supernatant, wash with PBS, add anhydrous methanol to fix the biofilm, and then stain it with crystal violet for 60 min after drying. After washing, dissolve the biofilm with 33% glacial acetic acid, and measure OD570. Three parallel experiments were performed, and the biofilm formation inhibition rate was calculated by the following formula:
# (3) Biofilm formation inhibition rate (%)=(1−OD(sample)− OD(blank)/OD(negative)− OD(blank))×100%
# CRAB [2] = assay: MBC determination, MBC/MIC ratio; type: cell-based, carbapenem-resistant Acinetobacter baumannii; details: MBC/MIC ≤4 is considered bactericidal
# Procedure: The MBC was determined using the microdilution broth method described above for MIC determination. After identifying the clear wells (no growth), 10 µL of the liquid from these wells was transferred and spread on a nutrient agar plate. The plate was incubated at 37°C for 18–24 h. […] The lowest concentration with no visible growth was considered the MBC.
# CRAB [3] = assay: Outer membrane permeability assay (NPN); type: cell-based, carbapenem-resistant Acinetobacter baumannii; details: 10^8 CFU mL^−1
# Procedure: NPN binds phospholipids in the periplasmic space, so NPN assay was carried out to analyze the effect of AMPs on the outer membrane permeabilization of bacteria ([65]). After CRAB was grown to the exponential phase, bacteria cells were harvested and washed three times in washing buffer of 5 mM glucose and 5 mM HEPES (1:1, pH = 7.2) and then re-adjusted to 10^8 CFU mL^−1 in same buffer. Bacterial suspensions (150 µL/well) were loaded into black-walled, clear-bottom 96-well plates with lids. Following bacterial loading, 50 µL of 10 µM NPN was introduced into each well, with 30-min pre-incubation for CRAB. Post-incubation fluorescence signals were acquired using 350 nm excitation and 420 nm emission wavelengths. Compounds (10 µL) were then administered to achieve 1 × MIC/10 × MIC -equivalent final concentrations in the dye-loaded bacterial suspensions. Real-time fluorescence monitoring was performed with continuous acquisition during the first 10 min, followed by measurements at 10-min intervals. Negative controls received 10 µL sterile water in lieu of antimicrobial peptides while maintaining equivalent pre-incubation conditions. All experimental conditions were executed with three biological replicates.
# sheep red blood cells = assay: Hemolysis test; type: cell-based; details: 4% sheep red blood cell suspension in PBS, 37°C, 1 h, OD 450 nm, log2-transformed
# Procedure: Freshly collected sheep red blood cells, provided by Solarbio (Beijing, China), were washed three times with PBS to prepare a red blood cell suspension (2,000 rpm). Subsequently, the resulting red blood cells were suspended in 1 × PBS buffer and adjusted to a 4% red blood cell suspension. In a 96-well plate, perform twofold serial dilutions of the test peptides in 1 × PBS to final concentrations of 512, 256, 128, 64, 32, 16, 8, 4, 2, 1, 0.5, and 0.25 µg mL^−1 in each well. Use Triton X-100 as a positive control and 1 × PBS buffer as a negative control. Take 100 µL of red blood cell solution and 100 µL of peptide solutions with different concentration gradients and control solutions, add them to a new 96-well plate, and incubate at 37°C for 1 h. Subsequently, the 96-well plate was centrifuged at 4,000 rpm for 10 min, and the supernatant was collected into a 96-well plate for later use. Then the absorbance was measured at a wavelength of 450 nm using a microplate reader. All experiments were repeated in three parallel groups and averaged. The hemolysis rate was calculated by the following formula and the IC50 value of each AMPs was calculated by online tools: https://www.aatbio.com/tools/ic50-calculator.
# (1) Hemolysis rate (%)=OD(AMP)− OD(PBS)/OD(TritonX−100)− OD(PBS)×100%
sequence,measurement,setting,value
WLKRILKWIGNKLKW [PL-15],time to eliminate MRSA,MRSA; 1/2 × MIC,≤ 6 h
same,time to complete bacterial eradication of MRSA,MRSA; 1 × MIC,≤ 6 h
same,time to full bacterial killing of MRSA,MRSA; 2 × MIC,≤ 3 h
same,time to full bacterial killing of MRSA,MRSA; 4 × MIC,≤ 3 h
same,MIC,CRKP 2403276,lower than 11 µg mL^−1
same,MIC,CRPA 2403282,64 µg/mL
same,biofilm formation inhibition,CRAB [1],moderate biofilm inhibition
same,bactericidal classification by MBC/MIC ratio,CRAB [2],bactericidal effects
same,NPN fluorescence (outer membrane permeability),CRAB [3]; 1 × MIC,marginal increase in fluorescence intensity
same,NPN fluorescence (outer membrane permeability),CRAB [3]; 10 × MIC,rapid and significant increase in fluorescence intensity
same,log2IC50 (50% hemolytic concentration),sheep red blood cells,≥ 3

# From article PMC12502564, “Evaluation of LLM-generated peptide as foundation template for discovery of effective encrypted AMPs against clinical superbugs” (Microbiology Spectrum, 2025)
